Experimental data: the NIST ThermoML archive (doi:10.1021/je050020m)

Conditions: Liquid, Vibrating tube method

CCCCCCCCCC [decane]
Conditions | mass density [kg/m3]
313.09 K, 1048 kPa | 715.63
313.09 K, 2010 kPa | 716.43
313.09 K, 2997 kPa | 717.28
313.09 K, 4060 kPa | 718.18
313.09 K, 5029 kPa | 718.98
313.09 K, 6019 kPa | 719.8
313.09 K, 7016 kPa | 720.64
313.09 K, 8050 kPa | 721.47
313.09 K, 9000 kPa | 722.24
313.09 K, 10029 kPa | 723.06
313.09 K, 11016 kPa | 723.85
313.09 K, 12012 kPa | 724.63
313.09 K, 13027 kPa | 725.4
313.09 K, 14011 kPa | 726.15
313.09 K, 15010 kPa | 726.91
313.09 K, 16030 kPa | 727.65
313.09 K, 17016 kPa | 728.38
313.09 K, 18037 kPa | 729.1
313.09 K, 19000 kPa | 729.81
313.09 K, 20019 kPa | 730.5
313.09 K, 21014 kPa | 731.21
313.09 K, 22032 kPa | 731.92
313.09 K, 23021 kPa | 732.62
313.09 K, 24016 kPa | 733.33
313.09 K, 25012 kPa | 734.06
323.03 K, 1025 kPa | 707.94
323.03 K, 2017 kPa | 708.85
323.03 K, 3015 kPa | 709.76
323.03 K, 4018 kPa | 710.65
323.03 K, 5022 kPa | 711.53
323.03 K, 6021 kPa | 712.41
323.03 K, 7018 kPa | 713.31
323.03 K, 8022 kPa | 714.15
323.03 K, 9016 kPa | 715.01
323.03 K, 10012 kPa | 715.84
323.03 K, 11022 kPa | 716.67
323.03 K, 12015 kPa | 717.51
323.03 K, 13020 kPa | 718.33
323.03 K, 14011 kPa | 719.12
323.03 K, 15010 kPa | 719.9
323.03 K, 16019 kPa | 720.71
323.03 K, 17010 kPa | 721.46
323.03 K, 18013 kPa | 722.22
323.03 K, 19033 kPa | 723
323.03 K, 20022 kPa | 723.74
323.03 K, 21014 kPa | 724.45
323.03 K, 22023 kPa | 725.22
323.03 K, 23025 kPa | 725.93
323.03 K, 24016 kPa | 726.68
323.03 K, 25021 kPa | 727.42
332.95 K, 1022 kPa | 700.4
332.95 K, 2005 kPa | 701.33
332.95 K, 3025 kPa | 702.32
332.95 K, 4025 kPa | 703.25
332.95 K, 5018 kPa | 704.2
332.95 K, 6018 kPa | 705.12
332.95 K, 7019 kPa | 706.08
332.95 K, 8023 kPa | 706.96
332.95 K, 9021 kPa | 707.89
332.95 K, 10017 kPa | 708.78
332.95 K, 11033 kPa | 709.68
332.95 K, 12023 kPa | 710.54
332.95 K, 13009 kPa | 711.42
332.95 K, 14016 kPa | 712.21
332.95 K, 15025 kPa | 713.05
332.95 K, 16011 kPa | 713.87
332.95 K, 17017 kPa | 714.69
332.95 K, 18016 kPa | 715.5
332.95 K, 19015 kPa | 716.28
332.95 K, 20029 kPa | 717.09
332.95 K, 21001 kPa | 717.84
332.95 K, 22034 kPa | 718.63
332.95 K, 23017 kPa | 719.41
332.95 K, 24023 kPa | 720.18
332.95 K, 25002 kPa | 720.95
343.8 K, 1014 kPa | 692.56
343.8 K, 2027 kPa | 693.64
343.8 K, 3016 kPa | 694.64
343.8 K, 4020 kPa | 695.65
343.8 K, 5016 kPa | 696.67
343.8 K, 6019 kPa | 697.68
343.8 K, 7026 kPa | 698.66
343.8 K, 8022 kPa | 699.65
343.8 K, 9014 kPa | 700.58
343.8 K, 10017 kPa | 701.53
343.8 K, 11022 kPa | 702.48
343.8 K, 12021 kPa | 703.39
343.8 K, 13011 kPa | 704.27
343.8 K, 14013 kPa | 705.16
343.8 K, 15025 kPa | 706.05
343.8 K, 16019 kPa | 706.94
343.8 K, 17010 kPa | 707.79
343.8 K, 18023 kPa | 708.61
343.8 K, 19030 kPa | 709.47
343.8 K, 20008 kPa | 710.25
343.8 K, 21017 kPa | 711.1
343.8 K, 22035 kPa | 711.92
343.8 K, 23004 kPa | 712.73
343.8 K, 24008 kPa | 713.53
343.8 K, 25103 kPa | 714.44
352.71 K, 2132 kPa | 686.04
352.71 K, 3053 kPa | 687.07
352.71 K, 4028 kPa | 688.15
352.71 K, 5028 kPa | 689.19
352.71 K, 6065 kPa | 690.28
352.71 K, 7007 kPa | 691.26
352.71 K, 8041 kPa | 692.36
352.71 K, 9064 kPa | 693.4
352.71 K, 10047 kPa | 694.38
352.71 K, 11019 kPa | 695.38
352.71 K, 12012 kPa | 696.31
352.71 K, 13031 kPa | 697.31
352.71 K, 14010 kPa | 698.18
352.71 K, 15014 kPa | 699.14
352.71 K, 16012 kPa | 700.05
352.71 K, 17008 kPa | 700.95
352.71 K, 17959 kPa | 701.8
352.71 K, 19020 kPa | 702.7
352.71 K, 20044 kPa | 703.6
352.71 K, 21044 kPa | 704.46
352.71 K, 22024 kPa | 705.31
352.71 K, 23009 kPa | 706.13
352.71 K, 24014 kPa | 707
352.71 K, 25000 kPa | 707.86
362.63 K, 2054 kPa | 678.23
362.63 K, 3010 kPa | 679.34
362.63 K, 4132 kPa | 680.68
362.63 K, 5020 kPa | 681.68
362.63 K, 6026 kPa | 682.79
362.63 K, 7042 kPa | 683.95
362.63 K, 8057 kPa | 685.06
362.63 K, 9014 kPa | 686.08
362.63 K, 10034 kPa | 687.17
362.63 K, 10999 kPa | 688.24
362.63 K, 12014 kPa | 689.26
362.63 K, 13025 kPa | 690.26
362.63 K, 13992 kPa | 691.22
362.63 K, 15019 kPa | 692.24
362.63 K, 16004 kPa | 693.18
362.63 K, 17008 kPa | 694.11
362.63 K, 18002 kPa | 695.04
362.63 K, 19037 kPa | 696.02
362.63 K, 20027 kPa | 696.93
362.63 K, 21030 kPa | 697.8
362.63 K, 22003 kPa | 698.73
362.63 K, 23027 kPa | 699.61
362.63 K, 24046 kPa | 700.55
362.63 K, 25011 kPa | 701.39
